Entries after “also recorded” stand apart in the source; their conditions may differ. Read-outs that look alike come from different tables or passages of the source.
Assays:
TEAD [1] = assay: TEAD luciferase reporter assay in MCF7 cells; format: cell-based; settings: for IC50: Homo sapiens
Method: (§1) Stable cell lines, namely MCF7 cell TEAD luciferase cells, were maintained in Dulbecco’s modified Eagle medium (DMEM) containing 10% fetal bovine serum, penicillin, and streptomycin, at 37 °C, in a humidified incubator containing 5% CO2. To construct an MCF7-TEAD luciferase stable cell line, MCF7 cells were infected with a TEAD luciferase reporter lentivirus using polybrene (Millipore, Burlington, MA, USA) and then selected with puromycin. The stable cell lines NCI-[…] and NCI-H28 were maintained in Roswell Park Memorial Institute (RPMI) medium.
TEAD luciferase reporter MCF7 cells were seeded into 96-well white plates (3 × 10^4 cells per well). The medium was replaced with DMEM without fetal bovine serum (FBS; 100 μL per well), and the cells were treated with various concentrations of compounds (0.001–10 μmol/L) for 24 h. Fifty microliters of the medium containing compounds was removed from each well, following which 50 μL of FBS in 10% DMEM was added to the cells and incubated for 6 h. Luciferase activity was measured using the One-Glo® Luciferase Assay Kit from Promega (Madison, WI, USA). A small portion of the medium was removed (60 μL) from each well, and 40 μL of One-Glo® Luciferase assay buffer containing reagent was added in its place. Luminescence was measured using a VICTOR® Nivo™ multimode microplate reader (PerkinElmer, Waltham, MA, USA) and normalized to the results of the vehicle.

TEAD [2] = settings: cited from earlier work
TEAD [3] = settings: cited from earlier work; remark: listed apart in the source
H226 cancer cell = assay: Cell viability assay (CellTiter-Glo 2.0), H226; format: cell-based; settings: Homo sapiens, NCI-H226, 144 h, H226 cells, n = 3
Method: as §1
(§2) Cells were seeded into 96-well plates (1 × 10^3 cells per well) and changed to RPMI with 1% FBS, and then treated with various concentrations (0.0001–10 μmol/L) of compounds (MGH-CP1, BC-010, BC-011, and BC-013) for 144 h. The medium was replaced with 1% FBS + RPMI containing compounds every 3 d. Cell viability was measured using the CellTiter-Glo® 2.0 Cell Viability Assay Kit from Promega. Before the viability was measured, the drug treatment medium was removed and replaced with 50 μL of FBS-free RPMI and 50 μL of CellTiter-Glo® 2.0 reagent. The cells with medium replacement were incubated for 1 h at room temperature, to prevent exposure to light. Luminescence was measured using a VICTOR® Nivo™ multimode microplate reader (PerkinElmer) and normalized to the results of the vehicle.

H28 cancer cell line = assay: Cell viability assay (CellTiter-Glo 2.0), H28; format: cell-based; settings: for IC50: Homo sapiens, NCI-H28, H28 cells, 144 h, n = 3
Method: as §1, §2

[4] = system: TEAD target genes Ctgf and Cyr61; assay: mRNA expression of TEAD target genes by qRT-PCR in H226 cells; format: cell-based; settings: 24 h, 1, 5 and 10 μM, n = 3
Method: H226 cells were seeded at a density of 1 × 10^5 cells/well into a 12-well plate. After treatment with various concentrations (1, 5, and 10 μM) of the compounds, the cells were incubated at 37 °C for 24 h. RNA extraction was performed using the RNeasy Plus Mini Kit (QIAGEN, Hilden, Germany), as per the manufacturer’s protocol. Extracted RNA was quantified using a NanoDrop™ One Microvolume UV–Vis Spectrophotometer (Thermo Fisher, Waltham, MA, USA). cDNA was synthesized using 1000 ng of quantified RNA and an iScript™ cDNA Synthesis Kit (Bio-Rad, Hercules, CA, USA). qRT-PCR was carried out using PowerUp™ SYBR™ Green Master Mix (Thermo Fisher) and primers (hCTGF-F: CCAATGACAACGCCTCCTG, hCTGF-R: TGGTGCAGCCAGAAAGCTC, hCYR61-F: […], hCYR61-R: […], hβ-actin-F: […], hβ-actin-R: […]), with the results normalized to those of the vehicle.

TEAD2 = target: TEAD2; design: method as in PMID 26592798; settings: reference compounds of Figure 1; cited from earlier work
[5] = 1 nM to 10 μM, n = 2, read-out: IC50, TEAD reporter luciferase assay
[6] = reference compounds of Figure 1
[7] = reference compounds of Figure 1 and FMO section
[8] = Vivace compounds, ref 45 (WO202097389A1)

Question: For `COc1ccc(C(=O)O)cc1COc1ccc(C(F)(F)F)cc1` [BC-012], which IC50 (TEAD [1]; [5]) is on record?
Answer: 8.9 µM

Question: With `COc1ccc(C(N)=O)cc1COc1ccccc1` [BC-007] as the compound, how does the IC50 (TEAD [1]; [5]) read?
Answer: 5.61 µM

Question: Which IC50 (TEAD [2]; [6]) does the source give for `O=C(O)c1cnc2c(cnn2C2CCCC2)c1` [Fragment 1(Merck)] here?
Answer: 16 µM

Question: With `Cn1cc2c3cc(C(=O)O)ccc3n(-c3ccc(C(F)(F)F)cc3)c2n1` [MSC-4106] as the compound, how does the IC50 (TEAD [2]; [7]) read?
Answer: 0.004 µM

Question: For `C[C@@H](CN(C)C)NC(=O)c1ccc2c(-c3ccc(C(F)(F)F)cc3)cccc2c1` [EX64], which IC50 (TEAD [3]; [8]) is on record?
Answer: 1 to 3 µM

Question: What does the source list for `COc1ccc(C(=O)NN)cc1COc1ccc(Br)cc1` [BC-002]?
Answer: TEAD reporter luciferase activity (in words) (TEAD [1]): retained the same activity as BC-001; IC50 (TEAD [1]; [5]): 2.89 µM

Question: For `COC(=O)c1ccc(OC)c(COc2ccc(C(F)(F)F)cc2)c1` [BC-013], which IC50 (TEAD [1]; [5]) is on record?
Answer: 0.417 µM

Question: And the IC50 (H226 cancer cell)?
Answer: 2.25 µM

Question: What about the IC50 (H28 cancer cell line) of the same compound?
Answer: 9.32 µM

Question: With `COc1ccc(C(N)=O)cc1COc1ccc(C(F)(F)F)cc1` [BC-011] as the compound, how does the IC50 (TEAD [1]; [5]) read?
Answer: 0.0724 µM

Question: What about the IC50 (H226 cancer cell) of the same compound?
Answer: 0.488 µM

Question: And the “Effect on viability (in words)” value (H28 cancer cell line; H28 cancer cell line)?
Answer: did not show any inhibitory effects

Question: And the IC50 (H28 cancer cell line)?
Answer: > 10 µM

Question: And the “Ctgf mRNA expression” value [4]?
Answer: significantly downregulated; also recorded: decreased

Question: What about the “Cyr61 mRNA expression” value [4] of the same compound?
Answer: significantly downregulated; also recorded: decreased

Question: With `COc1ccc(C(=O)O)cc1COc1ccccc1` [BC-008] as the compound, how does the IC50 (TEAD [1]; [5]) read?
Answer: > 10 µM

Question: With `O=C(Nc1ccccc1)N1CCN(C(=O)c2cccc(OCCC3CCCCC3)c2)CC1` [TM2] as the compound, how does the IC50 (TEAD [2]; [6]) read?
Answer: 0.152 µM

Question: Which results are given for `COc1ccc(C(=O)NN)cc1COc1ccc(Cl)c(C)c1` [BC-001]?
Answer: IC50 (TEAD [1]; [5]): 3.68 µM; IC50 (TEAD [1]; read-out: IC50, reporter assay): 3.7 µM

Question: Which IC50 (TEAD [3]; Merck compounds, ref 40 (WO2021224291A1)) does the source give for `Cn1cc2c3cc(C(=O)O)ccc3n(-c3ccc(F)cc3)c2n1` [Merck_20] here?
Answer: 1.9 µM

Question: What does the source list for `COc1ccc(C(=O)NN)cc1COc1ccc(Cl)cc1` [BC-003]?
Answer: TEAD reporter luciferase activity (in words) (TEAD [1]): retained the same activity as BC-001; IC50 (TEAD [1]; [5]): 3.99 µM

Question: What does the source list for `O=C(CSc1nnc[nH]1)Nc1ccc(C23CC4CC(CC(C4)C2)C3)cc1` [MGH-CP1, reference compound]?
Answer: IC50 (TEAD [1]; [5]): 0.219 µM; IC50 (H226 cancer cell): 1.19 µM; IC50 (H28 cancer cell line): 1.72 µM; IC50 (TEAD [2]; [7]): 1.92 µM

Question: For `O=C(O)c1ccccc1Nc1cccc(Br)c1` [Bromofenamic acid, bromofenamic acid], which Kd (TEAD2) is on record?
Answer: 234 µM

Question: Which IC50 (TEAD [2]; [7]) does the source give for `C=CC(=O)N1C[C@@H](n2cc(-c3cccnc3)nn2)[C@H](OCc2ccc(C(F)(F)F)cc2)C1` [MYF–03–69] here?
Answer: 0.385 µM

Question: Which IC50 (TEAD [1]; [5]) does the source give for `COC(=O)c1ccc(OC)c(COc2ccccc2)c1` [BC-009] here?
Answer: 2.61 µM

Question: With `C=CC(=O)Nc1ccc(C)c(Oc2ccc(Cl)cc2)c1` [K–975] as the compound, how does the IC50 (TEAD [2]; [7]) read?
Answer: < 0.1 µM

Question: With `CC(NC(=O)c1cnc2c(-c3ccc(C(F)(F)F)cc3)cccc2c1)c1ccccn1` (centres unmarked) [VT-105] as the compound, how does the IC50 (TEAD [2]; [7]) read?
Answer: 0.0104 µM

Question: Which IC50 (TEAD [3]; [8]) does the source give for `C[C@H](NC(=O)c1ccc2c(-c3ccc(C(F)(F)F)cc3)cccc2c1)c1ccccn1` [VT-104] here?
Answer: 0.01 µM

Question: With `COc1c(C)cc(N2C[C@@H](O)[C@@H](O)C2=O)cc1/C=C/c1ccc(Cl)cc1` [Compound 1 (Genentech)] as the compound, how does the IC50 (TEAD [2]; [6]) read?
Answer: 2.8 µM

Question: For `COc1ccc(C=C(C#N)C#N)cc1COc1cc(C)c(Cl)c(C)c1` [BC-004], which “TEAD reporter luciferase activity (in words)” value (TEAD [1]) is on record?
Answer: did not exhibit any activity

Question: What about the IC50 (TEAD [1]; 1 nM to 10 μM, n = 2, printed in figure as 10uM<, read-out: IC50, TEAD reporter luciferase assay) of the same compound?
Answer: > 10 µM

Question: With `O=C(CCl)c1ccccc1Nc1cccc(C(F)(F)F)c1` [TED–347] as the compound, how does the EC50 (TEAD [2]; reference compound of Figure 1) read?
Answer: 5.9 ± 0.4 µM

Question: Which IC50 (TEAD [2]; [7]) does the source give for `COc1ncc(NS(C)(=O)=O)cc1/C=C/C1CCC(F)(F)CC1` [Compound 2] here?
Answer: 0.263 µM

Question: With `O=C(O)c1ccccc1Nc1cccc(C(F)(F)F)c1` [Flufenamic acid, flufenamic acid] as the compound, how does the Kd (TEAD2) read?
Answer: 73 µM

Question: Which “TEAD reporter luciferase activity (in words)” value (TEAD [1]) does the source give for `NNC(=O)c1cccc(COc2ccc(Cl)cc2)c1` [BC-005] here?
Answer: increased

Question: With `COc1ccc(C(=O)NN)cc1COc1ccccc1` [BC-006] as the compound, how does the IC50 (TEAD [1]; [5]) read?
Answer: 1.52 µM

Question: For `COc1ccc(C(=O)NN)cc1COc1ccc(C(F)(F)F)cc1` [BC-010], which IC50 (TEAD [1]; [5]) is on record?
Answer: 0.768 µM

Question: What about the IC50 (H226 cancer cell) of the same compound?
Answer: 0.93 µM

Question: What about the IC50 (H28 cancer cell line) of the same compound?
Answer: 9.1 µM

From paper PMC11121470, “Leveraging the Fragment Molecular Orbital and MM-GBSA Methods in Virtual Screening for the Discovery of Novel Non-Covalent Inhibitors Targeting the TEAD Lipid Binding Pocket” (International Journal of Molecular Sciences, 2024)
